Experiments:
[1] = tested on: CD4+ T cells from T1N donors; experiment: In vitro peptide stimulation of CD4+ T cells with peptide-loaded fixed T2DQ6 cells, then DQ6-peptide tetramer staining; format: cell-based, human; details: for Frequency of corresponding DQ6-peptide tetramer+/CD4+ T cells after in vitro stimulation with the peptide: T2DQ6 pulsed with 1 μM peptide, co-culture with CD4+ T cells of T1N donors, IL-7/IL-2, with vs without peptide, n = 13 donors (HCRT peptides)
Procedure: Fig. 3 Tetramer^+/CD4^+ T cells in DQ6^+ donors. a Dot-plots of CD4^+ T cells stimulated in vitro with the indicated peptides followed by staining with the indicated tetramers. Frequencies (%) of tetramer^+/CD4^+ T cells are indicated. b Comparison between frequencies of tetramer^+ T cells from the same T1N donor (paired as indicated) with and without peptide stimulation. Significance (P < 0.05, bolded) is determined using the paired samples t-test (n = 13 donors). c Enrichment (with peptide stimulation vs. without) of DQ6-HCRT56–69 tetramer^+/CD4^+ T cells in HCRT87–100 peptide stimulated culture. d Frequencies or e tetramer-binding ranks (mean index fluorescence intensity) of tetramer^+ T cells from patients and controls (sample information summarized in Table 1) stained with the indicated tetramers. Statistical analysis compares control and patient samples within each tetramer specificity. Significance (P < 0.05, bolded) is determined using the unequal variance t-test. The error bar represents mean ± SEM
To test for the presence of DQ6-HCRTpeptide tetramer^+/CD4^+ T cells, a peptide-loaded antigen-presenting cell (APC) line T2DQ6 (fixed to limit APC proliferation) was co-cultured with T cells for DQ6-restricted antigen stimulation. T2DQ6 was constructed by stable transfection of DQ6 (DQA1*01:02/DQB1*06:02) into T2, a class II-deficient TxB hybrid cell[31]. T2DQ6 cells were maintained in IMDM, GlutaMAX supplemented media (Thermo Fisher Scientific) with 10% HI FBS, 1% penicillin/streptomycin (P/S) and 1 mg/ml G418 (to maintain selective pressure on DQ6 transfectants). To load antigen, T2DQ6 cells were pulsed with peptides (i.e., EBV486–500, HCRT56–69, HCRT87–100, synthesized by Genscript) at 1 μM final concentration and incubated for 6 h at 37 °C. After peptide loading, 10 million T2DQ6 cells were washed with phosphate buffered saline (PBS) and then fixed by incubating with 0.025% glutaraldehyde in 2 ml PBS at RT for 30 s. After the addition of another 2 ml PBS, the cells were incubated for another 10 min at RT. Fixed T2DQ6 was washed twice with PBS and once with complete RPMI (RPMI 1640 medium supplemented with 10% HI human AB serum, 2 mM glutamine and 1% PS, Thermo Fisher Scientific) before mixing with CD4^+ T cells. Human PBMCs frozen in NUNC tubes were thawed quickly at 37 °C and added slowly to 10 ml warm complete RPMI. PBMCs were pelleted and resuspended in cold buffer for CD4^+ T cell isolation. Cells were isolated from the PBMCs by negative selection, using the CD4^+ cell isolation kit, according to the manufacturer’s instructions (Miltenyi Biotec). […]

[2] = tested on: TCR27 (TRAJ24+ TCR) in J76-NFATRE-luc Jurkat cells; experiment: T cell activation assay using NFAT-RE luciferase reporter, TCR27 Jurkat transfectants with K562-DQ6 APCs; format: cell-based, human; parameters: dose or concentration left out as unconfirmed; details: HCRT peptide, 1 × 10^5 K562-DQ6 APCs + 1 × 10^5 TCR27 J76-NFATRE-luc cells, 37 °C, 1 day; Nano-Glo chemiluminescence
Text: Fig. 6 Validation of tetramer binding and TCR signaling. a TCRs tested by transfection into Jurkat-luciferase reporter system. b Dot-plots of Jurkat transfectants expressing TCRs as shown in a. Expression of GFP indicates a successful transfection of plasmids directing the expression of TCRs. c Tetramer staining of TCR^+ Jurkat cells with percentages of tetramer^+ cells indicated. d MFIs of the tetramer-associated signal on the surface of TCR^+ cells are compared. e Jurkat cells expressing the indicated TCR were incubated with DQ6-expressing APCs (HLA class II^- K562 cells transfected with DQ6) in the presence of HCRT peptides or control stimuli: PBS (negative) or anti-CD3/anti-CD28 Abs (positive). Luciferase activity reflecting TCR-mediated signaling was measured and analyzed as previously described. […] Significance (P < 0.05, bolded) is determined using t-test comparing the indicated TCR and the TCR control
To encode the entire α/β chains of a candidate TCR, the nucleotide sequences for CDR3α and CDR3β (Supplementary Data 3) were incorporated in frame with the corresponding V(D)J genes (IMGT/V-QUEST[43]). TCRα/β genes were then synthesized and cloned into a plasmid pEF1a-TCRA_2A_TCRB_IRES-AcGFP1 (by GenScript). Each reconstructed plasmid uses a mammalian promoter, EF1a to direct co-expression of α and β chains of one candidate TCR. TCRA and TCRB are separated by the 2A self-cleaving peptide sequence. For selection purposes, the plasmid also encodes the green fluorescence protein (GFP) and neomycin resistance gene, with expression driven by separate promoters. […]
The TCR transfectants of J76-NFATRE-luc cells expresses the NFAT-RE (response element)-luciferase reporter gene allowing the conversion of T cell activation signaling to luciferase activity. […] The co-culture was incubated with various stimuli at 37 °C for 1 day before quantification of the luciferase activity. […] The mixture was then transferred to a flat-bottom white 96-well plate (Costar) for a measurement of chemiluminescence using a plate reader.

[3] = molecular target: soluble DQ6 (HLA-DQA1*01:02/DQB1*06:02) (Homo sapiens, UniProt P01909+P01920, A157G/A45G/C70R/E118A/E183D/E77G/F83G/G63E/H151Q/H199R/H252R/H253Q/I129T/I235V/I88M/INS77G/K197Q/L117V/L119F/L178F/L71W/L74F/L85Q/L91A/L98M/N214S/P87R/Q116E/Q76K/R102G/R240Q/R75S/R78G/S102Y/S185I/S41F/S97I/T121G/T122I/T172A/T86R/V229M/V68A/V73E/Y34C/Y41F/Y58L); experiment: Peptide competition assay: inhibition of DQ6 binding of biotinylated EBV486–500; details: test peptide 40 μM, 20 h
Procedure: To identify DQ6-restricted T epitopes in prepro-HCRT (the HCRT precursor), we used a modified version of the peptide-loading assay[31] in which HCRT peptides were tested for the ability to inhibit DQ6-binding of EBV486–500, a known DQ6-binding epitope derived from Epstein-Bar virus. We evaluated overlapping 15-mer peptides, offset by four amino acids (aa), covering the entire prepro-HCRT sequence (Supplementary Data 1). […] These were consistent with in silico peptide-binding predictions using the NetMHCIIpan3.2 software[33] (Supplementary Fig. 1a–c). The nine peptides span five regions (i–v) of prepro-HCRT. A strong binder (>75% competition), HCRT1–15, was within the signal peptide region (i) and contained a 9-aa core, […], previously shown to bind DQ6 by X-ray structure. Two overlapping peptides span the C-terminus of the signal peptide and N-terminus of the secreted HCRT1 neurotransmitter. This region (ii) contained three possible registers as predicted by NetMHCIIpan3.2 using nonamers (Supplementary Fig. 1d). […]
Fig. 2 DQ6-binding cores in prepro-HCRT and their structural impacts. a Thirty overlapping peptides covering prepro-HCRT were added, individually, into a reaction containing soluble DQ6, bio-EBV486–500 peptide, and HLA-DM (a peptide loading catalyst). DQ6-associated bio-EBV486–500 was measured at steady state by ELISA[31]. %Competition = 1−%DQ6/EBV binding. […]

Substance | Frequency of corresponding DQ6-peptide tetramer+/CD4+ T cells after in vitro stimulation with the peptide [1] | TCR-mediated signaling (luciferase activity) of TCR27 transfectants [2] | further results
EBV486-500: known DQ6-binding epitope derived from Epstein-Barr virus nuclear antigen; positive control peptide [reference compound] | enrichment |  | 
SGNHAAGILTMGRR [HCRT87–100] | significantly increased | moderate TCR-mediated signaling | DQ6-HCRT56–69 tetramer+/CD4+ T cells in HCRT87–100 peptide stimulated culture ([1]; with peptide stimulation vs without, some T1N donors): in vitro enrichment
SGNHAAGILTM-NH2 [HCRT87–97-NH2] |  | stronger signaling | 
MNLPSTKVSWAAVTL [Hcrt1-15, 15-mer overlapping peptide of prepro-HCRT] |  |  | %Competition (inhibition of the indicator EBV peptide binding to DQ6) ([3]; 1 μM biotinylated EBV486–500, 25 nM thrombin-cleaved DQ6-CLIP87–101, 100 nM DM, acetate pH 4.6, 37 °C, DELFIA Eu-streptavidin time-resolved fluorescence, %Competition = 1−%DQ6/EBV binding, mean, n = 4): > 75%
ALLSSGAAAQPLPDC [Hcrt25-39, 15-mer overlapping peptide of prepro-HCRT] |  |  | DQ6 binder class by %Competition ([3]; same assay as E1, pH 4.6, 37 °C): strong
AGNHAAGILTLGKR [HCRT56–69] | significantly increased |  | 
MNLPSTKVSWAAV [HCRT1–13] |  | null function | 
